Patent US10538498B2, “1,3,4-oxadiazole sulfonamide derivative compounds as histone deacetylase 6 inhibitor, and the pharmaceutical composition comprising the same” (Chong Kun Dang Pharmaceutical Corp., priority 2015, dated 2020)

Target: T1, human recombinant HDAC6 (Homo sapiens, UniProt Q9UBN7)
T1 construct: purchased Calbiochem 382180
T1 sequence (Q9UBN7 1-1215): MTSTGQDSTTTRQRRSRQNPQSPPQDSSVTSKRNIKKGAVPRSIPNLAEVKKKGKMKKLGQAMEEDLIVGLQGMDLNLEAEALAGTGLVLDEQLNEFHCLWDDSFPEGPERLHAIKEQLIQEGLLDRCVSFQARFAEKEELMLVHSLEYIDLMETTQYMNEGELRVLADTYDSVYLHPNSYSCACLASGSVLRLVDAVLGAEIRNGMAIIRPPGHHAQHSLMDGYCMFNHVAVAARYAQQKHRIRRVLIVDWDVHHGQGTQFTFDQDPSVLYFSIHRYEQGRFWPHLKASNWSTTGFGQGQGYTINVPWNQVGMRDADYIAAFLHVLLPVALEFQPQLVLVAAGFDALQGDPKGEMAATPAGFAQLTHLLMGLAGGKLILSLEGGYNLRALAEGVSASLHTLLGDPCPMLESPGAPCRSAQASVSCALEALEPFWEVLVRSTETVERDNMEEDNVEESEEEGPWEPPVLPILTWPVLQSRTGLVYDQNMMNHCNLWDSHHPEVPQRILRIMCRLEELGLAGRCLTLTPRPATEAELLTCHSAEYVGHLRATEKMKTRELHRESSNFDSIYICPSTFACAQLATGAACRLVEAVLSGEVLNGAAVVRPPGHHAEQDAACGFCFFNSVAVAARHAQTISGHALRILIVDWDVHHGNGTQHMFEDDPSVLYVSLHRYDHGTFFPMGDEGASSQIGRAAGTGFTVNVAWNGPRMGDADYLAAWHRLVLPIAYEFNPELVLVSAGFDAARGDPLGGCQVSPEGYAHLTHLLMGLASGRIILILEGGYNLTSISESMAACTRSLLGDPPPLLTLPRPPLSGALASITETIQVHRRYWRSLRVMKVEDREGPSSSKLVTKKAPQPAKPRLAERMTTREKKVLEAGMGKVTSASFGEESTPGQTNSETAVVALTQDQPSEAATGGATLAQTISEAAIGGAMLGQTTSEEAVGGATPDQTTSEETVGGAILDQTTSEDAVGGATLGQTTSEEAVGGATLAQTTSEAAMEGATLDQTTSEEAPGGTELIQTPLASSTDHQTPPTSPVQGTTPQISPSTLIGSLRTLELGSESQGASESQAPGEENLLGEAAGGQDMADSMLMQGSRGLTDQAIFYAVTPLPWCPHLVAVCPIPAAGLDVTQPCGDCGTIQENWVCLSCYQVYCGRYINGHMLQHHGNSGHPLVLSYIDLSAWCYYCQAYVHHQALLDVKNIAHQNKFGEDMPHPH
Assay: HDAC6 enzyme activity inhibition assay (HDAC Fluorimetric Drug Discovery Kit)
Assay type: biochemical
Details: for HDAC6 selectivity (fold): HDAC1 vs HDAC6; for IC50: same protocol as the HDAC1 enzyme activity test
Outline: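 First, compound in 5-fold dilution steps is combined with 0.3 μg enzyme and 10 μM Fluor de Lys-SIRT1 substrate. After 60 min at 30° C, developer is added for 30 min. Fluorescence at Ex 360/Em 460 then gives IC50 values.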

| Compound | HDAC6 selectivity (fold) | IC50 [nM] |
| --- | --- | --- |
| O=S(=O)(CCN1CCN(CCc2ccccc2)CC1)N(Cc1ccc(-c2nnc(C(F)F)o2)cc1)c1ccccc1 [Compound 11771, N-(4-(5-(difluoromethyl)-1,3,4-oxadiazol-2-yl)benzyl)-2-(4-phenethylpiperazin-1-yl)-N-phenylethane-1-sulfonamide] | 311 | 321 |
| O=S(=O)(CCN1CCN(CCc2ccncc2)CC1)N(Cc1ccc(-c2nnc(C(F)F)o2)cc1)c1ccccc1 [Compound 11772, N-(4-(5-(difluoromethyl)-1,3,4-oxadiazol-2-yl)benzyl)-N-phenyl-2-(4-(2-(pyridin-4-yl)ethyl)piperazin-1-yl)ethane-1-sulfonamide] | 2057 | 48.6 |
| O=S(=O)(CCN1CCN(C/C=C/c2ccccc2)CC1)N(Cc1ccc(-c2nnc(C(F)F)o2)cc1)c1ccccc1 [Compound 11773, 2-(4-cinnamylpiperazin-1-yl)-N-(4-(5-(difluoromethyl)-1,3,4-oxadiazol-2-yl)benzyl)-N-phenylethane-1-sulfonamide] | 370 | 270 |
| CS(=O)(=O)N(Cc1ccc(-c2nnc(C(F)F)o2)cc1F)c1ccc2ncoc2c1 [Compound 11774, N-(benzo[d]oxazol-6-yl)-N-(4-(5-(difluoromethyl)-1,3,4-oxadiazol-2-yl)-2-fluorobenzyl)methanesulfonamide] | 1503 | 66.5 |
| CS(=O)(=O)N(Cc1ccc(-c2nnc(C(F)F)o2)cc1F)c1ccc2ncsc2c1 [Compound 11775, N-(benzo[d]thiazol-6-yl)-N-(4-(5-(difluoromethyl)-1,3,4-oxadiazol-2-yl)-2-fluorobenzyl)methanesulfonamide] | 2906 | 34.4 |
| CS(=O)(=O)N(Cc1ccc(-c2nnc(C(F)F)o2)cc1F)c1nncs1 [Compound 11776, N-(4-(5-(difluoromethyl)-1,3,4-oxadiazol-2-yl)-2-fluorobenzyl)-N-(1,3,4-thiadiazol-2-yl)methanesulfonamide] | 113 | 882 |
| CCN1CC(N2CCC(S(=O)(=O)N(Cc3ccc(-c4nnc(C(F)F)o4)cc3)c3cccc(Cl)c3)CC2)C1 [Compound 11777, N-(3-chlorophenyl)-N-(4-(5-(difluoromethyl)-1,3,4-oxadiazol-2-yl)benzyl)-1-(1-ethylazetidin-3-yl)piperidine-4-sulfonamide] | 3472 | 28.8 |
| CC(C)N1CC(N2CCC(S(=O)(=O)N(Cc3ccc(-c4nnc(C(F)F)o4)cc3)c3cccc(Cl)c3)CC2)C1 [Compound 11778, N-(3-chlorophenyl)-N-(4-(5-(difluoromethyl)-1,3,4-oxadiazol-2-yl)benzyl)-1-(1-isopropylazetidin-3-yl)piperidine-4-sulfonamide] | 2724 | 36.7 |
| CC(=O)N1CC(N2CCC(S(=O)(=O)N(Cc3ccc(-c4nnc(C(F)F)o4)cc3)c3cccc(Cl)c3)CC2)C1 [Compound 11779, 1-(1-acetylazetidin-3-yl)-N-(3-chlorophenyl)-N-(4-(5-(difluoromethyl)-1,3,4-oxadiazol-2-yl)benzyl)piperidine-4-sulfonamide] | 2493 | 40.1 |
| CCC(=O)N1CC(N2CCC(S(=O)(=O)N(Cc3ccc(-c4nnc(C(F)F)o4)cc3)c3cccc(Cl)c3)CC2)C1 [Compound 11780, N-(3-chlorophenyl)-N-(4-(5-(difluoromethyl)-1,3,4-oxadiazol-2-yl)benzyl)-1-(1-propionylazetidin-3-yl)piperidine-4-sulfonamide] | 1893 | 52.8 |
| CC(C)N1CC(N2CCC(S(=O)(=O)N(Cc3ccc(-c4nnc(C(F)F)o4)cn3)c3cccc(Cl)c3)CC2)C1 [Compound 11781, N-(3-chlorophenyl)-N-((5-(5-(difluoromethyl)-1,3,4-oxadiazol-2-yl)pyridin-2-yl)methyl)-1-(1-isopropylazetidin-3-yl)piperidine-4-sulfonamide] | 5319 | 18.8 |
| CCC(=O)N1CC(N2CCC(S(=O)(=O)N(Cc3ccc(-c4nnc(C(F)F)o4)cn3)c3cccc(Cl)c3)CC2)C1 [Compound 11782, N-(3-chlorophenyl)-N-((5-(5-(difluoromethyl)-1,3,4-oxadiazol-2-yl)pyridin-2-yl)methyl)-1-(1-propionylazetidin-3-yl)piperidine-4-sulfonamide] | 4032 | 24.8 |
| O=C(C1CC1)N1CC(N2CCC(S(=O)(=O)N(Cc3ccc(-c4nnc(C(F)F)o4)cc3)c3cccc(Cl)c3)CC2)C1 [Compound 11783, N-(3-chlorophenyl)-1-(1-(cyclopropanecarbonyl)azetidin-3-yl)-N-(4-(5-(difluoromethyl)-1,3,4-oxadiazol-2-yl)benzyl)piperidine-4-sulfonamide] | 1440 | 69.4 |
| O=C(C1CC1)N1CC(N2CCC(S(=O)(=O)N(Cc3ccc(-c4nnc(C(F)F)o4)cn3)c3cccc(Cl)c3)CC2)C1 [Compound 11784, N-(3-chlorophenyl)-1-(1-(cyclopropanecarbonyl)azetidin-3-yl)-N-((5-(5-(difluoromethyl)-1,3,4-oxadiazol-2-yl)pyridin-2-yl)methyl)piperidine-4-sulfonamide] | 3154 | 31.7 |
| CN1CC(N2CCC(S(=O)(=O)N(Cc3ccc(-c4nnc(C(F)F)o4)cc3)c3cccc(Cl)c3)CC2)C1 [Compound 11785, N-(3-chlorophenyl)-N-(4-(5-(difluoromethyl)-1,3,4-oxadiazol-2-yl)benzyl)-1-(1-methylazetidin-3-yl)piperidine-4-sulfonamide] | 2092 | 47.8 |
| O=S(=O)(CCN1CCC(F)CC1)N(Cc1ccc(-c2nnc(C(F)F)o2)cn1)c1ccc(F)c(Cl)c1 [Compound 11786, N-(3-chloro-4-fluorophenyl)-N-((5-(5-(difluoromethyl)-1,3,4-oxadiazol-2-yl)pyridin-2-yl)methyl)-2-(4-fluoropiperidin-1-yl)ethane-1-sulfonamide] | 1828 | 54.7 |
| COCC(C)N1CCC(S(=O)(=O)N(Cc2ccc(-c3nnc(C(F)F)o3)cn2)c2ccccc2)CC1 (stereo not drawn) [Compound 11790, N-((5-(5-(difluoromethyl)-1,3,4-oxadiazol-2-yl)pyridin-2-yl)methyl)-1-(1-methoxypropan-2-yl)-N-phenylpiperidine-4-sulfonamide] | 2227 | 44.6 |
| O=S(=O)(C1CCN(C2CC(O)C2)CC1)N(Cc1ccc(-c2nnc(C(F)F)o2)cn1)c1ccccc1 (stereo not drawn) [Compound 11791, N-((5-(5-(difluoromethyl)-1,3,4-oxadiazol-2-yl)pyridin-2-yl)methyl)-1-(3-hydroxycyclobutyl)-N-phenylpiperidine-4-sulfonamide] | 2114 | 47.3 |
| Cc1cccc(N(Cc2ccc(-c3nnc(C(F)F)o3)cc2)S(=O)(=O)C2CCN(C3CC(O)C3)CC2)c1 (stereo not drawn) [Compound 11792, N-(4-(5-(difluoromethyl)-1,3,4-oxadiazol-2-yl)benzyl)-1-(3-hydroxycyclobutyl)-N-(m-tolyl)piperidine-4-sulfonamide] | 1218 | 82.1 |
| O=S(=O)(C1CCN(C2CC(O)C2)CC1)N(Cc1ccc(-c2nnc(C(F)F)o2)cc1)c1cccc(Cl)c1 (stereo not drawn) [Compound 11793, N-(3-chlorophenyl)-N-(4-(5-(difluoromethyl)-1,3,4-oxadiazol-2-yl)benzyl)-1-(3-hydroxycyclobutyl)piperidine-4-sulfonamide] | 1718 | 58.2 |
| O=S(=O)(C1CCN(C2CCC2)CC1)N(Cc1ccc(-c2nnc(C(F)F)o2)cn1)c1ccccc1 [Compound 11794, 1-cyclobutyl-N-((5-(5-(difluoromethyl)-1,3,4-oxadiazol-2-yl)pyridin-2-yl)methyl)-N-phenylpiperidine-4-sulfonamide] | 2192 | 45.6 |
